Reference: patent US20150140015A1, “METHODS AND PHARMACEUTICAL COMPOSITIONS FOR THE TREATMENT OF PANCREATIC CANCER” (INSERM (Institut National de la Sante et de la Recherche …, priority 2013, published 2015)

Columns and labels:
AsPC-1 cells = assay: Cell growth of AsPC-1 cells (cell counting); assay type: cell-based, human; conditions: Example 1; Orexin-A treatment of the OX1R-expressing AsPC-1 cell line
Experimental: FIG. 9. Effect of Orexin-B anti-OX1R antibodies on cell growth of AsPC-1 cells. Cells were incubated with 0.1 μM of OxB or antibodies for 48 h in culture medium and then cells were counted in order to estimate the cellular growth.
The aims of this study were: 1/ to investigate the presence of OX1R in human PAC cell lines and to analyze orexin-A effects in relation to apoptosis; 2/ to develop an in vivo heterotopic xenograft model from the cell lines expressing OX1R, for the study of tumor growth in response to Orexin-A. The expression of OX1R was studied at mRNA (RT-PCR), proteins (immunocytochemistry) and functional levels in 3 PAC cell lines (AsPC-1, HPAF-II and SW1990). The development of an animal model (heterotopic xenograft) from the cell line expressing OX1R, has allowed studying the effect of Orexin-A in tumor growth. Resected tumors were analyzed by immunohistochemistry. Only AsPC-1 cell line expresses OX1R.
The development of antibodies directed against OX1R were produced by a phage display strategy and the antibody selection was performed by using HEK and HEK stably expressing OX1R (HEK-OX1R) cell lines. […] Cells were incubated with 0.1 μM of OxB or antibodies for 48 h in culture medium and then cells were counted in order to estimate the cellular growth. […]

parental HPAF-II cells = assay: Activated caspase-3 immunostaining in parental HPAF-II cells; assay type: cell-based, human; conditions: 1 μM orexin-A, 48 hr
Experimental: (§1) FIGS. 5A and B. Effect of orexin-A on apoptosis in OX1R expressing recombinant OX1R/HPAF-II cells. A, Parental HPAF-II and recombinant OX1R/HPAF-II cells were challenged with (black bars) or without (white bars) 1 μM orexin-A for 48 hr in the absence or presence of the SHP-2 protein tyrosine phosphatase inhibitor, NSC-87877 (50 μM). Apoptosis was measured by determination of annexin V-PE binding. Results are expressed as the percentage of apoptotic cells, and are the means±SE of three separate experiments. ***p<0.001; ns, non-significant; B, paraformaldehyde-fixed HPAF-II cells and recombinant OX1R/HPAF-II cells were challenged with or without (Basal) 1 μM orexin-A for 48 hr. […]
(§2) After dewaxing, rehydrating tumor paraffin sections, and antigen retrieval by pretreatment with high temperature at pH 9, immunohistochemical procedures were carried out using an automated immunohistochemical stainer according to the manufacturer's guidelines (Bond-Max slide stainer, Menarini, Leica Microsystems). […] OX1R immunostaining was evaluated by two investigators (TV and AC) by calculating a score (0-300) obtained by multiplying the intensity (negative, 0; weak, 1; moderate, 2; and strong, 3) by the percentage of stained cells. The pattern of expression (cytoplasmic, membranous, and nuclear) was also recorded, and a mean score was calculated for each tumor. […]

[1] = system: recombinant OX1R/HPAF-II cells; assay: Activated caspase-3 immunostaining in recombinant OX1R/HPAF-II cells; assay type: cell-based, human; conditions: 1 μM orexin-A, 48 hr
Experimental: as §1, §2

[2] = system: parental HPAF-II cells xenografted in nude mice; assay: Tumorigenicity assay: parental HPAF-II cells xenografted in nude mice; assay type: in vivo; conditions: daily treatment with 1 mole orexin-A/kg (so in the source)
Experimental: (§3) FIG. 8A-C. Effect of daily inoculation of orexin-A on the growth of tumors developed by xenografting OX1R expressing recombinant HPAF-II cells in nude mice. Parental HPAF-II (A) or recombinant OX1R/HPAF-II/cells (B) were inoculated in the flank of nude mice at day 0. Mice were injected daily intraperitoneally with 100 μl of 1 μmoles of orexin-A/Kg solutions starting at day 0 for both cell lines (◯) or day 28 for OX1R/HPAF-II cells (▴) or with 100 μl of PBS ([…]) for controls. The development of tumors was followed by caliper measurement; C. Formalin-fixed xenografted HPAF-II or OX1R/HPAF-II tumors from nude mice intraperitoneally injected daily or not with 1 μmoles/Kg orexin-A were analyzed by cleaved caspase-3 immunostaining. Cleaved caspase-3 positive cells were counted in 10 different fields, each comprising 500 tumoral cells, in the presence (black bars) or absence (white bars) of 50 days orexin-A treatment. Data are the means±SE of 6 tumors in each group; *** p<0.01 versus control.
(§4) Control mice received PBS.

[3] = system: recombinant HPAF-II/OX1R cells xenografted in nude mice; assay: Tumorigenicity assay: recombinant HPAF-II/OX1R cells xenografted in nude mice; assay type: in vivo
Experimental: as §3, §4
After dewaxing, rehydrating tumor paraffin sections, and antigen retrieval by pretreatment with high temperature at pH 9, immunohistochemical procedures were carried out using an automated immunohistochemical stainer according to the manufacturer's guidelines (Bond-Max slide stainer, Menarini, Leica Microsystems). For immunohistochemistry on cell lines, cells in pellets were fixed in formalin, embedded in cell blocks (Shandon Cytoblock; Thermo Scientific; USA) and cut into 3 μm sections. […] OX1R immunostaining was evaluated by two investigators (TV and AC) by calculating a score (0-300) obtained by multiplying the intensity (negative, 0; weak, 1; moderate, 2; and strong, 3) by the percentage of stained cells. The pattern of expression (cytoplasmic, membranous, and nuclear) was also recorded, and a mean score was calculated for each tumor. […] Cleaved caspase-3 immunostaining was determined by calculating the percentage of tumor cells stained in 10 fields of xenografted tumor cells, each field comprising 500 tumor cells.

“orexin-A: 33 amino acid hypothalamic neuropeptide, OX1R agonist, SEQ ID NO:2; peptide from GL Biochemicals” was tested, and the cell growth inhibition (AsPC-1 cells) was 32%, the caspase-3 activation (parental HPAF-II cells) was “no activation” and the caspase-3 activation [1] was “strong caspase-3 activation”. For the same substance, the tumor growth inhibition [2] was “unable to promote tumor growth inhibition”, the “caspase-3 activation in tumors as compared to tumors from parental HPAF-II cells” value ([3]; 1 μmoles/Kg daily i.p., 50 days, cleaved caspase-3 positive cells) was 3.5 fold and the “tumor volumes, treatment of established tumors” value ([3]; orexin-A started after 28 days tumor growth) was “significant reduction in tumor volumes”. For the same substance, the “inhibition of tumor development” value ([3]; treated daily with orexin-A from day 0) was “about 65%”.
